Key:
[1] = system: antibodies in sera from SARS patients (sera 1a, 1b, 2, 6, 37, 62, London, SARS-yellow, SARS-green); format: binding, human; set-up: Binding of serum 6 to linear peptides of protein X1 of SARS-CoV Urbani / Binding of serum 37 to linear peptides of protein X1 of SARS-CoV Urbani / Binding of serum 6 to looped/cyclic peptide (PEPSCAN-ELISA) / Binding of serum 37 to looped/cyclic peptide (PEPSCAN-ELISA) / Binding of serum 37 to looped/cyclic peptides of protein X1 of SARS-CoV Urbani / Binding of serum 6 to linear peptides of protein X2 / Binding of serum 37 to linear peptides of protein X2 / Binding of serum 37 to looped/cyclic peptides of protein X2 of SARS-CoV Urbani / Binding of serum 6 to linear peptides of protein M of SARS-CoV Urbani / Binding of serum 37 to linear peptides of protein M of SARS-CoV Urbani / Binding of serum 6 to looped/cyclic peptides of protein M of SARS-CoV Urbani / Binding of serum 37 to looped/cyclic peptides of protein M of SARS-CoV Urbani / Binding of serum 6 to linear peptides of protein X3 of SARS-CoV Urbani / Binding of serum 37 to linear peptides of protein X3 of SARS-CoV Urbani / Binding of serum 37 to looped/cyclic peptides of protein X3 of SARS-CoV Urbani / Binding of serum 6 to linear peptides of protein X4 of SARS-CoV Urbani / Binding of serum 37 to linear peptides of protein X4 of SARS-CoV Urbani / Binding of serum 37 to looped/cyclic peptides of protein X4 of SARS-CoV Urbani / Binding of serum 6 to linear peptides of protein X5 of SARS-CoV Urbani / Binding of serum 37 to linear peptides of protein X5 of SARS-CoV Urbani / Binding of serum 37 to looped/cyclic peptides of protein X5 of SARS-CoV Urbani / Binding of serum 6 to linear peptides of protein N of SARS-CoV Urbani / Binding of serum 37 to linear peptides of protein N of SARS-CoV Urbani / Binding of serum 6 to linear peptide (PEPSCAN-ELISA) / Binding of serum 1a to looped/cyclic peptides of protein N of SARS-CoV Urbani / Binding of serum 1b to looped/cyclic peptides of protein N of SARS-CoV Urbani / Binding of serum 2 to looped/cyclic peptides of protein N of SARS-CoV Urbani / Binding of serum 6 to looped/cyclic peptides of protein N of SARS-CoV Urbani / Binding of serum 37 to looped/cyclic peptides of protein N of SARS-CoV Urbani / Binding of serum 62 to looped/cyclic peptides of protein N of SARS-CoV Urbani / Binding of serum London to looped/cyclic peptides of protein N of SARS-CoV Urbani / Binding of serum SARS-green to looped/cyclic peptides of protein N of SARS-CoV Urbani: unit not given here
[2] = system: rabbit serum obtained by immunizing a rabbit with the SARS-CoV strain Frankfurt 1; format: binding; set-up: Binding of a rabbit serum to linear peptides / Binding of a rabbit serum to looped peptides / Rabbit serum linear peptides / Rabbit serum looped peptides / Binding of a rabbit serum to linear peptides of protein N of SARS-CoV Urbani (Rabbit serum linear peptides) / Binding of a rabbit serum to looped/cyclic peptides of protein N of SARS-CoV Urbani (Rabbit serum looped peptides): unit not given here
[3] = system: control sera (pooled serum of ten healthy LUMC hospital workers; commercial negative donor pooled serum from the Dutch bloodbank); format: binding, human; set-up: Binding of Control serum LUMC to linear peptides / Binding of Control serum Blood-bank to linear peptides / Binding of Control serum LUMC to looped peptides / Binding of Control Serum Blood-Bank to Looped peptides / Binding of Control serum LUMC to linear peptides of the protein M of SARS-CoV Urbani / Binding of Control serum Blood-bank to linear peptides of the protein M of SARS-CoV Urbani / Binding of Control serum LUMC to looped peptides of the protein M of SARS-CoV Urbani / Binding of Control Serum Blood-Bank to Looped peptides of the protein M of SARS-CoV Urbani: unit not given here

Row | Sequence | Binding of serum 1a to linear peptides of protein X2 [1] | Binding of serum 1a to looped/cyclic peptides of protein X2 of SARS-CoV Urbani [1] | Binding of serum 1b to linear peptides of protein X2 [1] | Binding of serum 1b to looped/cyclic peptides of protein X2 of SARS-CoV Urbani [1] | Binding of serum 2 to linear peptides of protein X2 [1] | Binding of a rabbit serum to linear peptides [2] | Binding of a rabbit serum to looped peptides [2] | Binding of Control Serum Blood-Bank to Looped peptides [3] | Binding of Control serum Blood-bank to linear peptides [3] | Binding of Control serum LUMC to linear peptides [3] | Binding of Control serum LUMC to looped peptides [3] | Binding of serum 1a to linear peptides of protein X1 of SARS-CoV Urbani [1] | Binding of serum 1b to linear peptides of protein X1 of SARS-CoV Urbani [1] | Binding of serum 2 to linear peptides of protein X1 of SARS-CoV Urbani [1] | Binding of serum 6 to linear peptides of protein X1 of SARS-CoV Urbani [1] | Binding of serum 37 to linear peptides of protein X1 of SARS-CoV Urbani [1] | Binding of serum 62 to linear peptides of protein X1 of SARS-CoV Urbani [1] | Binding of serum London to linear peptides of protein X1 of SARS-CoV Urbani [1] | Binding of serum SARS-green to linear peptides of protein X1 of SARS-CoV Urbani [1] | Binding of serum SARS-yellow to linear peptides of protein X1 of SARS-CoV Urbani [1] | other results
1 | TSLSLHKLLQTLVLK | 0.7 | 0.5 | 0.6 | 0.4 | 0.5 | 0.2 | 0.5 | 0.6 | 0.9 | 0.6 | 0.6 | – | – | – | – | – | – | – | – | – | Binding of serum 2 to looped/cyclic peptides of protein X2 of SARS-CoV Urbani [1]: 0.3; Binding of serum 6 to linear peptides of protein X2 [1]: 1.0; Binding of serum 6 to looped/cyclic peptides of protein X2 of SARS-CoV Urbani [1]: 0.3; Binding of serum 37 to linear peptides of protein X2 [1]: 0.6; Binding of serum 37 to looped/cyclic peptides of protein X2 of SARS-CoV Urbani [1]: 0.4; Binding of serum 62 to linear peptides of protein X2 [1]: 0.7; Binding of serum 62 to looped/cyclic peptides of protein X2 of SARS-CoV Urbani [1]: 0.6; Binding of serum London to linear peptides of protein X2 [1]: 0.6; Binding of serum London to looped/cyclic peptides of protein X2 of SARS-CoV Urbani [1]: 0.2; Binding of serum SARS-green to linear peptides of protein X2 [1]: 0.7; Binding of serum SARS-green to looped/cyclic peptides of protein X2 of SARS-CoV Urbani [1]: 0.4; Binding of serum SARS-yellow to linear peptides of protein X2 [1]: 0.6; Binding of serum SARS-yellow to looped/cyclic peptides of protein X2 of SARS-CoV Urbani [1]: 0.5
2 | VTEGDGISTPKLKED | – | – | – | – | – | 0.0 | 0.4 | 0.3 | 0.2 | 0.2 | 0.3 | 0.5 | 0.4 | 0.3 | 0.3 | 0.4 | 0.3 | 0.3 | 0.1 | 0.2 | Binding of serum 1a to looped/cyclic peptides of protein X1 of SARS-CoV Urbani [1]: 0.3; Binding of serum 1b to looped/cyclic peptides of protein X1 of SARS-CoV Urbani [1]: 0.2; Binding of serum 2 to looped/cyclic peptides of protein X1 of SARS-CoV Urbani [1]: 0.1; Binding of serum 6 to looped/cyclic peptides of protein X1 of SARS-CoV Urbani [1]: 0.1; Binding of serum 37 to looped/cyclic peptides of protein X1 of SARS-CoV Urbani [1]: 0.3; Binding of serum 62 to looped/cyclic peptides of protein X1 of SARS-CoV Urbani [1]: 0.3; Binding of serum London to looped/cyclic peptides of protein X1 of SARS-CoV Urbani [1]: 0.2; Binding of serum SARS-green to looped/cyclic peptides of protein X1 of SARS-CoV Urbani [1]: 0.1; Binding of serum SARS-yellow to looped/cyclic peptides of protein X1 of SARS-CoV Urbani [1]: 0.1
3 | WLVIGVAFLAVFQSA | – | – | – | – | – | 0.5 | 0.5 | 0.5 | 0.6 | 0.6 | 0.5 | 0.6 | 0.5 | 0.5 | 0.4 | 0.7 | 0.6 | 0.3 | 0.3 | 0.4 | Binding of serum 1a to looped/cyclic peptide (PEPSCAN-ELISA) [1]: 0.5; Binding of serum 1b to looped/cyclic peptide (PEPSCAN-ELISA) [1]: 0.3; Binding of serum 2 to looped/cyclic peptide (PEPSCAN-ELISA) [1]: 0.4; Binding of serum 6 to looped/cyclic peptide (PEPSCAN-ELISA) [1]: 0.2; Binding of serum 37 to looped/cyclic peptide (PEPSCAN-ELISA) [1]: 0.5; Binding of serum 62 to looped/cyclic peptide (PEPSCAN-ELISA) [1]: 0.5; Binding of serum London to looped/cyclic peptide (PEPSCAN-ELISA) [1]: 0.2; Binding of serum SARS-green to looped/cyclic peptide (PEPSCAN-ELISA) [1]: 0.2; Binding of serum SARS-yellow to looped/cyclic peptide (PEPSCAN-ELISA) [1]: 0.5
4 | THRMCKYTQSTALQE | 0.9 | 0.5 | 0.8 | 0.6 | 0.5 | 0.3 | 0.3 | 0.5 | 0.9 | 0.7 | 0.4 | – | – | – | – | – | – | – | – | – | Binding of serum 2 to looped/cyclic peptides of protein X2 of SARS-CoV Urbani [1]: 0.2; Binding of serum 6 to linear peptides of protein X2 [1]: 0.6; Binding of serum 6 to looped/cyclic peptides of protein X2 of SARS-CoV Urbani [1]: 0.2; Binding of serum 37 to linear peptides of protein X2 [1]: 0.7; Binding of serum 37 to looped/cyclic peptides of protein X2 of SARS-CoV Urbani [1]: 0.3; Binding of serum 62 to linear peptides of protein X2 [1]: 0.8; Binding of serum 62 to looped/cyclic peptides of protein X2 of SARS-CoV Urbani [1]: 0.4; Binding of serum London to linear peptides of protein X2 [1]: 0.7; Binding of serum London to looped/cyclic peptides of protein X2 of SARS-CoV Urbani [1]: 0.2; Binding of serum SARS-green to linear peptides of protein X2 [1]: 0.6; Binding of serum SARS-green to looped/cyclic peptides of protein X2 of SARS-CoV Urbani [1]: 0.5; Binding of serum SARS-yellow to linear peptides of protein X2 [1]: 0.8; Binding of serum SARS-yellow to looped/cyclic peptides of protein X2 of SARS-CoV Urbani [1]: 0.3
5 | LALYKGFQFICNLLL | – | – | – | – | – | 0.2 | 0.6 | 0.6 | 0.6 | 0.5 | 0.6 | 0.7 | 0.5 | 0.5 | 0.4 | 0.5 | 0.6 | 0.2 | 0.2 | 0.5 | Binding of serum 1a to looped/cyclic peptide (PEPSCAN-ELISA) [1]: 0.5; Binding of serum 1b to looped/cyclic peptide (PEPSCAN-ELISA) [1]: 0.3; Binding of serum 2 to looped/cyclic peptide (PEPSCAN-ELISA) [1]: 0.4; Binding of serum 6 to looped/cyclic peptide (PEPSCAN-ELISA) [1]: 1.4; Binding of serum 37 to looped/cyclic peptide (PEPSCAN-ELISA) [1]: 0.5; Binding of serum 62 to looped/cyclic peptide (PEPSCAN-ELISA) [1]: 0.5; Binding of serum London to looped/cyclic peptide (PEPSCAN-ELISA) [1]: 1.4; Binding of serum SARS-green to looped/cyclic peptide (PEPSCAN-ELISA) [1]: 0.2; Binding of serum SARS-yellow to looped/cyclic peptide (PEPSCAN-ELISA) [1]: 0.5
